Among the data in patent US8937084B2, “Nitrogen containing morphinan derivatives and the use thereof” (Purdue Pharma L.P., priority 2012, dated 2015) are Ki, EC50 and Emax values, retold here.

Assay [1] deals with T1, μ-opioid receptor (Homo sapiens (Human), UniProt P35372). The assay is described as follows: μ-opioid receptor radioligand dose-displacement binding assay ([3H]-diprenorphine). The procedure:
μ-Opioid Receptor Binding Assay Procedures: Radioligand dose-displacement binding assays for μ-opioid receptors used 0.3 nM [^3H]-diprenorphine (Perkin Elmer, Shelton, Conn.), with […] membrane protein/well in a final volume of 500 μl binding buffer (10 mM MgCl2, 1 mM EDTA, 5% DMSO, 50 mM HEPES, pH 7.4). Reactions were carried out in the absence or presence of increasing concentrations of unlabeled naloxone. All reactions were conducted in 96-deep well polypropylene plates for 2 hours at room temperature. Binding reactions were terminated by rapid filtration onto 96-well Unifilter GF/C filter plates (Perkin Elmer, Shelton, Conn.), presoaked in 0.5% polyethylenimine using a 96-well tissue harvester (Perkin Elmer, Shelton, Conn.) followed by performing three filtration washes with 500 μl of ice-cold binding buffer. Filter plates were subsequently dried at 50° C. for 2-3 hours. BetaScint scintillation cocktail (Perkin Elmer, Shelton, Conn.) was added (50 μl/well), and plates were counted using a Packard Top-Count for 1 min/well. The data were analyzed using the one-site competition curve fitting functions in GraphPad PRISM™ v. 3.0 or higher (San Diego, Calif.), or an in-house function for one-site competition curve-fitting.
In TABLE 1, binding affinity of certain Compounds of the Invention to the μ-, δ- and κ-opioid receptors was determined as described above.

A further assay addresses δ opioid receptor (Homo sapiens (Human), UniProt P41143). Kind of assay: δ-opioid receptor [35S]GTPγS functional assay, HEK-293 or CHO cells. The class given is biochemical. The following applies: for EC50: GTPγS; for Emax: relative to met-enkephalin. The procedure: δ-Opioid Receptor Functional Assay Procedures: Functional [^35S]GTPγS binding assays were conducted as follows. 5 opioid receptor membrane solution was prepared by sequentially adding final concentrations of […] δ membrane protein (Perkin Elmer, Shelton, Conn.), 10 μg/mL saponin, 3 µM GDP and 0.20 nM [^35S]GTPγS to binding buffer (100 mM NaCl, 10 mM MgCl2, 20 mM HEPES, pH 7.4) on ice. The prepared membrane solution ([…]) was transferred to 96-shallow well polypropylene plates containing 10 μl of 20× concentrated stock solutions of agonist prepared in DMSO. Plates were incubated for 30 min at a temperature of about 25° C. with shaking. Reactions were terminated by rapid filtration onto 96-well Unifilter GF/B filter plates (Perkin Elmer, Shelton, Conn.) using a 96-well tissue harvester (Packard) and followed by three filtration washes with 200 μl ice-cold binding buffer (10 mM NaH2PO4, 10 mM Na2HPO4, pH 7.4). Filter plates were subsequently dried at 50° C. for 1-2 hours. Fifty μl/well scintillation cocktail (Perkin Elmer, Shelton, Conn.) was added and plates were counted in a Packard Top-count for 1 min/well.
δ-Oploid Receptor Functional Data: δ GTP EC50 is the concentration of a compound providing 50% of the maximal response for the compound at a δ receptor.
δ GTP Emax (%) is the maximal effect elicited by a compound relative to the effect elicited by met-enkephalin.
In TABLE 2, activity response of certain Compounds of the Invention to the μ-, δ- and κ-opioid receptors was determined as described above for functional assays using HEK-293 or CHO cells.
(GTPγS resists hydrolysis and so accumulates on activated G proteins.)

The target of assay [2] is T1, μ-opioid receptor. The assay is described as follows: μ-opioid receptor [35S]GTPγS functional assay, U-2 OS cells. The class given is biochemical. Particulars: for EC50: GTPγS; for Emax: relative to DAMGO. As to the method: μ-Opioid Receptor Functional Assay Procedures: [^35S]GTPγS functional assays were conducted using freshly thawed μ-receptor membranes prepared in-house from a cell line expressing recombinant μ opioid receptor in a HEK-293, CHO or U-2 OS cell background, or purchased from a commercial source (Perkin Elmer, Shelton, Conn.; or DiscovRx, Fremont, Calif.). Assay reactions were prepared by sequentially adding the following reagents to binding buffer (100 mM NaCl, 10 mM MgCl2, 20 mM HEPES, pH 7.4) on ice (final concentrations indicated): membrane protein (0.026 mg/mL), saponin ([…]), GDP ([…]) and [^35S]GTPγS (0.20 nM; Perkin Elmer, Shelton, Conn.). The prepared membrane solution (190 μl/well) was transferred to 96-shallow well polypropylene plates containing 10 μl of 20× concentrated stock solutions of the agonist [D-Ala^2, N-methyl-Phe^4 Gly-ol^5]-enkephalin (DAMGO) prepared in dimethyl sulfoxide (DMSO). Plates were incubated for 30 min at about 25° C. with shaking. Reactions were terminated by rapid filtration onto 96-well Unifilter GF/B filter plates (Perkin Elmer, Shelton, Conn.) using a 96-well tissue harvester (Perkin Elmer, Shelton, Conn.) followed by three filtration washes with 200 μl of ice-cold wash buffer (10 mM NaH2PO4, 10 mM Na2HPO4, pH 7.4). Filter plates were subsequently dried at 50° C. for 2-3 hours. BetaScint scintillation cocktail (Perkin Elmer, Shelton, Conn.) was added (50 μl/well) and plates were counted using a Packard Top-Count for 1 min/well. Data were analyzed using the sigmoidal dose-response curve fitting functions in GraphPad PRISM v. 3.0, or an in-house function for non-linear, sigmoidal dose-response curve-fitting.
μ-Opioid Receptor Functional Data: μ GTP EC50 is the concentration of a compound providing 50% of the maximal response for the compound at a μ-opioid receptor.
μ GTP Emax (%) is the maximal effect elicited by a compound relative to the effect elicited by DAMGO, a standard μ agonist. Generally, the μ GTP Emax (%) value measures the efficacy of a compound to treat or prevent pain or other Conditions.
The following TABLE 3 provides results on the activity response of certain Compounds of the Invention at the μ- and κ-opioid receptors determined as described above using U-2 OS cells.

Chain of δ opioid receptor (P41143 whole entry, looked up): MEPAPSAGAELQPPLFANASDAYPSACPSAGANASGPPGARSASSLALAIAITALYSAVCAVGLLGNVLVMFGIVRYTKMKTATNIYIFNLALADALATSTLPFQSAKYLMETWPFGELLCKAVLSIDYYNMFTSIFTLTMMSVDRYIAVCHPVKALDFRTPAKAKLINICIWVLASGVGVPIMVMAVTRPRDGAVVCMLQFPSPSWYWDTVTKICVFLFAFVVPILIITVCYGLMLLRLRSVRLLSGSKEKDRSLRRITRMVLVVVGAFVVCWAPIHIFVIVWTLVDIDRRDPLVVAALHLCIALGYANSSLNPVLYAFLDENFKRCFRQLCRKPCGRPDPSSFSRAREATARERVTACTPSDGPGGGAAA

One may read the Ki as a dissociation constant, usually derived from enzyme kinetics or from competition with a known ligand. Read a high Ki as weaker binding. What is called EC50 is the concentration that produces a half-maximal response. By Emax is commonly meant the size of the effect at its maximum, as opposed to the concentration needed. Regarding `NC(=O)CN1C[C@H]2[C@H]3Cc4ccc(O)cc4[C@@]2(CCN3CC2CC2)CC1=O` [Compound 4, 2-((4aS,5R,10bS)— 13-(cyclopropylmethyl)-9-hydroxy-2-oxo-4,4-a,5,6-tetrahydro-1H-5,10b-(epiminoethano)benzo[f]isoquinolin-3(2H)-yl)acetamide], the Ki at μ-opioid receptor [1] stood at 24.4 ± 7.61 nM. The EC50 was 9.06 ± 0.94 nM at δ opioid receptor and 7.05 ± 0.17 nM on μ-opioid receptor [2]. The Emax was 109 ± 3.28% on δ opioid receptor and 39 ± 3.51% on μ-opioid receptor [2].
On to `O=C1C[C@]23CCN(CC4CC4)[C@H](Cc4ccc(O)cc42)[C@@H]3CN1Cc1ccc(O)cc1` [Compound 5, (4aS,5R,10bS)-13-(cyclopropylmethyl)-9-hydroxy-3-(4-hydroxybenzyl)-4,4-a,5,6-tetrahydro-1H-5,10b-(epiminoethano)benzo[f]isoquinolin-2(3H)-one], for which the Ki at μ-opioid receptor [1] came out at 12.8 ± 1.55 nM. At δ opioid receptor, this molecule registered an EC50 of 4.39 ± 0.93 nM and an Emax of 71 ± 6.08%.
With `O=C1C[C@]23CCN(CC4CC4)[C@H](Cc4ccc(O)cc42)[C@@H]3CN1` [Compound 7, (4aS,5R,10bS)-13-(cyclopropylmethyl)-9-hydroxy-4,4-a,5,6-tetrahydro-1H-5,10b-(epiminoethano)benzo[f]isoquinolin-2(3H)-one], the Ki at μ-opioid receptor [1] came out at 5.61 ± 0.44 nM. On δ opioid receptor, this molecule came in with an EC50 of 8.7 ± 1.25 nM and a maximum response (Emax) of 85.7 ± 6.89%. Moreover, at μ-opioid receptor [2], the EC50 was 3.43 ± 0.43 nM and the maximum response (Emax) is 40.7 ± 3.18%.
`O=C(O)CN1C[C@H]2[C@H]3Cc4ccc(O)cc4[C@@]2(CCN3CC2CC2)CC1=O` [Compound 8, 2-((4aS,5R,10bS)-13-(cyclopropylmethyl)-9-hydroxy-2-oxo-4,4-a,5,6-tetrahydro-1H-5,10b-(epiminoethano)benzo[f]isoquinolin-3(2H)-yl)acetic acid] displayed a Ki at μ-opioid receptor [1] of 21.2 ± 6.62 nM. At δ opioid receptor, this molecule returned an EC50 of 2.41 ± 0.29 nM and an Emax of 110 ± 3.11%.
At μ-opioid receptor [1], `Oc1ccc2c(c1)[C@@]13CCNC[C@H]1[C@@H](C2)N(CC1CC1)CC3` [Compound 13, (4aS,5R,10bR)-13-(cyclopropylmethyl)-2,3,4,4a,5,6-hexahydro-1H-5,10b-(epiminoethano)benzo[f]isoquinolin-9-ol] showed a Ki of 50.4 ± 16.7 nM. Moreover, at δ opioid receptor, it took 36.5 ± 11.1 nM to reach a half-maximal effect (EC50) and the Emax is 83.3 ± 1.45%.
